Experimental data published in US20160082127A1, “PHOTOSENSITIZER PARTICLES FOR MEDICAL IMAGING AND/OR PHOTODYNAMIC THERAPY” (DCB-USA LLC, priority 2013, published 2016).

Tested on: mice skin
Test: In vivo photohypersensitivity of mice skin
Set-up: species or system nude mice
Settings: 0.3 mg/kg i.v.
Protocol: It is well known that some PDT agents result in photohypersensitivity of the skin, which causes significant inconvenience in the daily life of the patient. Typical signs of photohypersensitivity include redness and swelling of the skin, visible angiopathy along with the formation of skin debris and even eschar in server cases. To investigate whether the present photosensitizer particles may elicit photohypersensitivity in the patient, 0.3 mg/kg native CPLA photosensitizer particles (LN1 particles from Example 2.1, above) and 0.3 mg/kg gas-loaded CPLA photosensitizer particles (LA1 particles from Example 2.1, above) were respectively injected to the tail of nude mice via intravenous injection 3 hours prior to light irradiation (15, 40 or 100 J/cm^2). Foscan® (0.3 mg/kg) was used as the positive control, while 1×PBS (100 μL) was used as negative control.

photohypersensitivity of skin (15 or 40 J/cm^2): little to mild photohypersensitivity
photohypersensitivity of skin (100 J/cm^2): significant photohypersensitivity
Compound: Oc1cccc(-c2c3nc(c(-c4cccc(O)c4)c4ccc([nH]4)c(-c4cccc(O)c4)c4nc(c(-c5cccc(O)c5)c5ccc2[nH]5)CC4)C=C3)c1 [Foscan®]
